Results as given in ChEMBL document CHEMBL3612042 (J Med Chem, 2015).
≈ marks a conversion by molar mass, not a printed value.

Legend:
[1] = system: Mycobacterium tuberculosis; assay: Antibacterial activity against Mycobacterium tuberculosis H37Rv measured at 10 to 14 days by broth microdilution method; format: functional
[2] = molecular target: T1, Biotin--[acetyl-CoA-carboxylase] ligase (Mycobacterium tuberculosis (strain ATCC 25618 / H37Rv), UniProt I6YFP0)
T1 sequence (I6YFP0 whole entry): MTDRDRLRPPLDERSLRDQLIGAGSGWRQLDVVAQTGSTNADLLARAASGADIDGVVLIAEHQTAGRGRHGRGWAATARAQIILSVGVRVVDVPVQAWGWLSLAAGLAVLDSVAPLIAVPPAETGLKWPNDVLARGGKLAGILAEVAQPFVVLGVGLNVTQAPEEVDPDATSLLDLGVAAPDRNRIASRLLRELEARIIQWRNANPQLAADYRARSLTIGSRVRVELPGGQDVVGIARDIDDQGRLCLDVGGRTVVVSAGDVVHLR

[3] = system: Mycobacterium tuberculosis; assay: Antibacterial activity against Mycobacterium tuberculosis XDR1 measured at 7 to 14 days by broth microdilution method; format: functional
[4] = system: Mycobacterium tuberculosis; assay: Antibacterial activity against Mycobacterium tuberculosis XDR2 measured at 7 to 14 days by broth microdilution method; format: functional
[5] = system: Mycobacterium tuberculosis; assay: Antibacterial activity against Mycobacterium tuberculosis MDR1 measured at 7 to 14 days by broth microdilution method; format: functional
[6] = system: Mycobacterium tuberculosis; assay: Antibacterial activity against Mycobacterium tuberculosis MDR2 measured at 7 to 14 days by broth microdilution method; format: functional
[7] = system: Mycobacterium tuberculosis; assay: Antibacterial activity against Mycobacterium tuberculosis MDR3 measured at 7 to 14 days by broth microdilution method; format: functional
[8] = system: Mycobacterium tuberculosis; assay: Antibacterial activity against Mycobacterium tuberculosis MDR4 measured at 7 to 14 days by broth microdilution method; format: functional
[9] = system: Mycobacterium tuberculosis; assay: Antibacterial activity against Mycobacterium tuberculosis MDR5 measured at 7 to 14 days by broth microdilution method; format: functional
[10] = system: Mycobacterium tuberculosis; assay: Antibacterial activity against Mycobacterium tuberculosis MDR6 measured at 7 to 14 days by broth microdilution method; format: functional
[11] = system: Mycobacterium tuberculosis; assay: Antibacterial activity against Mycobacterium tuberculosis MDR7 measured at 7 to 14 days by broth microdilution method; format: functional
[12] = system: Mycobacterium tuberculosis; assay: Antibacterial activity against Mycobacterium tuberculosis MDR8 measured at 7 to 14 days by broth microdilution method; format: functional
[13] = system: Mycobacterium tuberculosis H37Rv; assay: Drug uptake in Mycobacterium tuberculosis H37Rv at 25 uM after 24 hrs by LC-MS/MS analysis; format: ADME, organism-based

Row | SMILES | MIC90 [1] [µM] | Kd [2] [nM] | further results
1 | Nc1ncnc2c1ncn2[C@H]1CNC[C@@H](COS(=O)(=O)NC(=O)CCCC[C@@H]2SC[C@@H]3NC(=O)N[C@@H]32)O1 | 3.12 (≈ 1.73 µg/mL) | 0.324 | 
2 | Nc1ncnc2c1ncn2[C@@H]1O[C@H](CNS(=O)(=O)NC(=O)CCCC[C@@H]2SC[C@@H]3NC(=O)N[C@@H]32)[C@@H](O)[C@H]1O |  |  | MIC99 [3]: 0.16 µM (≈ 0.0915 µg/mL); MIC99 [4]: 0.16 µM (≈ 0.0915 µg/mL); MIC99 [5]: 0.16 µM (≈ 0.0915 µg/mL); MIC99 [6]: 0.16 µM (≈ 0.0915 µg/mL); MIC99 [7]: 0.16 µM (≈ 0.0915 µg/mL); MIC99 [8]: 0.16 µM (≈ 0.0915 µg/mL); MIC99 [9]: 0.16 µM (≈ 0.0915 µg/mL); MIC99 [10]: 0.16 µM (≈ 0.0915 µg/mL); MIC99 [11]: 0.16 µM (≈ 0.0915 µg/mL); MIC99 [12]: 0.16 µM (≈ 0.0915 µg/mL)
3 | Nc1ncnc2c1ncn2[C@@H]1C[C@H](CNS(=O)(=O)NC(=O)CCCC[C@@H]2SC[C@@H]3NC(=O)N[C@@H]32)[C@@H](O)[C@H]1O | > 100 | 0.753 | 
4 | Nc1ncnc2c1ncn2[C@H]1CC[C@@H](CNS(=O)(=O)NC(=O)CCCC[C@@H]2SC[C@@H]3NC(=O)N[C@@H]32)C1 | 1.56 (≈ 0.839 µg/mL) | 0.54 | 
5 | Nc1ncnc2c1ncn2[C@@H]1O[C@H](CNS(=O)(=O)NC(=O)CCCC[C@@H]2SC[C@@H]3NC(=O)N[C@@H]32)C[C@H]1O | 0.78 (≈ 0.433 µg/mL) | 0.592 | 
6 | [N-]=[N+]=N[C@@H]1[C@H](O)[C@@H](CNS(=O)(=O)NC(=O)CCCC[C@@H]2SC[C@@H]3NC(=O)N[C@@H]32)O[C@H]1n1cnc2c(N)ncnc21 | 3.12 (≈ 1.86 µg/mL) | 0.933 | 
7 | C[C@@]1(O)[C@H](O)[C@@H](COS(=O)(=O)NC(=O)CCCC[C@@H]2SC[C@@H]3NC(=O)N[C@@H]32)O[C@H]1n1cnc2c(N)ncnc21 | 50 (≈ 29.3 µg/mL) | 0.769 | 
8 | CCN(CC)CC.Nc1ncnc2c1ncn2[C@@H]1O[C@H](COS(=O)(=O)NC(=O)CCCC[C@@H]2SC[C@@H]3NC(=O)N[C@@H]32)[C@@H](O)[C@@H]1F | 50 | 0.153 | Drug uptake [13]: Active
9 | Nc1ncnc2c1ncn2[C@@H]1O[C@H](CNS(=O)(=O)NC(=O)CCCC[C@@H]2SC[C@@H]3NC(=O)N[C@@H]32)[C@@H](O)[C@H]1N | 1.25 (≈ 0.713 µg/mL) | 0.627 | 
10 | Nc1ncnc2c1ncn2[C@H]1C=C[C@@H](CNS(=O)(=O)NC(=O)CCCC[C@@H]2SC[C@@H]3NC(=O)N[C@@H]32)C1 | 3.12 (≈ 1.67 µg/mL) | 2.14 | 
11 | CCN(CC)CC.Nc1ncnc2c1ncn2[C@@H]1O[C@H](CNS(=O)(=O)NC(=O)CCCC[C@@H]2SC[C@@H]3NC(=O)N[C@@H]32)[C@@H](O)[C@H]1F | 1.25 | 0.614 | Drug uptake [13]: Active
